Experimental data as given in publication PMC9227323, “The Potential of Cell-Penetrating Peptides for mRNA Delivery to Cancer Cells” (Pharmaceutics, 2022).
Values joined by “and” are separate entries in the source; they are usually repeats but may differ in a detail not shown here. Equal entries are not always repeated. Ends that are not written are not given here.

What was measured:
[1] = Size and zeta-potential of CPP/mRNA complexes by DLS; type: physicochemical; conditions: for Particle Size / PDI / Zeta Potential: CPP/mRNA complex at the N/P ratio of Table 2; for Particle Size / PDI: DLS; for Particle Size / Zeta Potential: Zetasizer Nano ZS; for Particle Size: 50 μg CPP in 1 mL distilled water; for PDI / Zeta Potential: distilled water; for N/P Ratio (lowest N/P ratio to form the nanocomplexes): CPP/mRNA complex, amine groups of peptide to phosphate groups of mRNA
Experimental: The size and zeta-potential of CPP/mRNA complexes were measured by dynamic light scattering (DLS) using Zetasizer Nano ZS (Malvern Instruments, Malvern, UK); 50 μg of CPPs mixed with an optimized amount of mRNA were diluted in 1 mL of distilled water and then transferred to a cuvette.

CT26.CL25 cells [2] = assay: mCherry protein expression, fluorescence microscopy; type: cell-based, mouse; conditions: CT26.CL25, CPP/mCherry mRNA 6.8 nM, 24 h after treatment, n = 3
Experimental: (§1) To measure expression efficiency, cells seeded on a 35 mm glass bottom dish were incubated in 1.5 mL of serum-free media for 2 h. After incubation, mCherry mRNA with Lipofectamine 3000 or CPPs were treated for 3 h, washed, and incubated in complete medium for an additional 21 h. The expression of mCherry protein was visualized with a fluorescence microscope (EVOS M7000, ThermoFisher). The expression efficiency was calculated by counting the number of cells expressing fluorescence in the total number of cells. For quantification of expression efficiency, flow cytometry analyses were examined after 24 h treatment with CPP/EGFP mRNA. CT26.CL25 cells were collected with PBS and EGFP-expressing cells were measured by a CytoFLEX flow cytometer (Beckman Coulter) using FlowJo v10 software.

CT26.CL25 cells [3] = assay: Cellular uptake of fluorescein-labeled mRNA, flow cytometry; type: cell-based, mouse; conditions: CT26.CL25, 3 μg (6.8 nM) fluorescein-labeled mCherry mRNA with CPP or Lipofectamine 3000, serum-free media, 3 h, n = 3
Experimental: For the cellular uptake test, mCherry mRNA was labeled with fluorescein dye using the Label IT nucleic acid labeling kit (MIR 3200) (Mirus Bio, Madison, WI, USA). CT26.CL25 cells plated on a 35 mm glass bottom dish were incubated in 1.5 mL of serum-free media for 2 h. […] After treatment, CT26.CL25 cells were collected with PBS and FITC-positive cells were measured by a CytoFLEX flow cytometer (Beckman Coulter, Palo Alto, CA, USA) using FlowJo v10 software.

CT26.CL25 cells [4] = assay: EGFP expression, flow cytometry; type: cell-based, mouse; conditions: CT26.CL25, EGFP mRNA 6.8 nM, 24 h, right plot of Figure 6B (amphipathic CPPs)
Experimental: as §1

mCherry mRNA = assay: Gel shift assay, complexation capacity of CPP with mRNA; type: physicochemical; conditions: 350 ng mCherry mRNA, n = 3
Experimental: The mRNA was diluted in RNase-free water at 100 ng/μL and incubated with CPPs (1 μg/μL in RNase-free water) at room temperature (RT) for 1 h at 200 rpm. For in vitro studies, CPP/mRNA complexes were diluted with 1× PBS by adding 10× PBS after complexation. To visualize the complexation of mRNA and CPP, 350 ng of mCherry mRNA was mixed with increasing amounts of CPP and a gel shift assay was performed using a 1% agarose gel. Complexation capacity was measured based on mRNA band intensities by Image J. Complexation capacity (%) = 100 − ((Band intensity of mRNA)/(Band intensity of initial mRNA) × 100))

| Substance | Particle Size [1] | PDI [1] | Zeta Potential [1] | N/P Ratio (lowest N/P ratio to form the nanocomplexes) [1] | mCherry-positive cells (CT26.CL25 cells [2]) | FITC-positive cells (cellular uptake) (CT26.CL25 cells [3]) | EGFP-expressing cells (CT26.CL25 cells [4]) [%] | amount of CPP at which complete complexes formed (mCherry mRNA) [nmol] |
| --- | --- | --- | --- | --- | --- | --- | --- | --- |
| Stearyl-RRRRRRRR [STR-Arg8, Stearyl-poly-Arginine8, amphipathic CPP, stearyl moiety introduced into Arg8] | 156.8 (±4.7) nm | 0.28 | +28.6 (±0.3) mV | 7.8 | 4.9% | 87.3% and > 85% | 14.6 | – |
| VSRRRRRRGGRRRR [LMWP, low molecular weight protamine, cationic cell-penetrating peptide, synthesized by Peptron] | 129.5 (±0.3) nm | 0.22 | +22.5 (±0.0) mV | 1.9 | – | 24.1% | – | – |
| Penetratin | – | – | – | – | incapable of protein expression | 28.7% | – | – |
| WEARLARALARALARHLARALARALRACEA [amphipathic cell-penetrating peptide, synthesized by Peptron] | 174.6 (±3.7) nm | 0.23 | +20.2 (±1.7) mV | 9.7 | 28.9% | 99.9% and > 85% | 29.5 | 1.0 |
